# Data published in PubChem BioAssay AID1918994 (Molecular Pharmacology Branch, DTP, NCI, 2023).
# System: 292921-168-R-J2-PDC complex spheroid growth
# Test: Anticancer human tumor 292921-168-R-J2-PDC patient-derived pancreatic carcinoma cell line growth inhibition [AhR]
# Conditions: for IC50: curve of first compound; for viability, T/C: stronger effect = lower value
# Text: Multicellular complex tumor spheroid response to aryl hydrocarbon receptor antagonists in combination with a variety of drugs and investigational agents in selected tumor cell lines
# The current study was undertaken to assess response to aryl hydrocarbon receptor antagonists in combination with standard-of-care drugs and investigational agents in solid tumor complex spheroid models. Complex spheroids include a stromal component modeled by human endothelial cells (HUVEC) and fibroblasts modeled by human mesenchymal stem cells (MSCs). The concentration ranges selected for each drug and investigational agent were based upon clinically achievable concentrations if the clinical Cmax of the agent was known.
# Compounds. The drugs and investigational agents: BAY 2416964 (NSC825713), GNF351 (NSC835774), CH-223191 (NSC835775), CPI-455 (NSC825282), aza-TdCyd (NSC777586), decitabine (NSC127716), belinostat (NSC758774), entinostat (NSC756642), pevonedistat (NSC761192), tazemetostat (NSC777109), talazoparib (NSC765396), olaparib (NSC753686), selinexor (NSC780203), nedisertib (M3814, NSC802822), bortezomib (NSC756655), venetoclax (NSC766270), doxorubicin (NSC123127), elimusertib (BAY189344, NSC800525), ceralasertib (AZD6738, NSC777638), TAK-243 (NSC785004), alisertib (NSC759677), etoposide (NSC141540), topotecan (NSC609699), eribulin (NSC707389), gemcitabine (NSC613327), carboplatin (NSC241240), cisplatin (NSC119875), and SN-38 (NSC673596) were obtained from the National Cancer Institute (NCI) Developmental Therapeutics Program Chemical Repository (32). The FDA-approved anticancer drug set is available from the Developmental Therapeutics Program at https://dtp.cancer.gov/organization/dscb/obtaining/available plates.htm. […] The stock solutions were prepared in dimethyl sulfoxide (DMSO, Sigma-Aldrich, St. Louis, MO, cat. D2650), except for the platinum compounds which were prepared in saline (Quality Biological, Gaithersburg, MD, cat. 114-055-101), at 800-fold the tested concentration and stored at -70 degrees C prior to their use. All drugs and investigational agents were tested over a range starting from a high concentration at or near the clinical Cmax and decreasing in half-log increments. If the clinical Cmax for an agent had not been determined, the highest concentration tested was 10 microM (Table 1).
# Cell Culture. All cells were maintained in an incubator at 37 degrees C and 5% CO2 with 95% humidity. The PDC lines were cultured according to standard operating procedures established by the NCI PDMR (https://pdmr.cancer.gov). Briefly, all PDCs were thawed and cultured in Matrigel-coated flasks prepared with a working solution of 1X Ham's F-12 nutrient mix, without supplementation (Invitrogen, Waltham, MA, cat. 11765054), 100 U/mL penicillin-streptomycin (Invitrogen, cat. 15140122), and 2.5% Matrigel (Corning Inc., Corning, NY, cat. 354248) for the first three passages. All PDCs were cultured in complete DMEM/F-12 media containing advanced DMEM/F-12 (Invitrogen, cat. 12634028), 4.9% defined fetal bovine serum, heat inactivated (HyClone Laboratories Inc., Logan, UT, cat. SH30070.03HI), 389 ng/mL hydrocortisone (Sigma-Aldrich, cat. H4001), 9.7 ng/mL human EGF recombinant protein (Invitrogen, cat. PHG0313), 23.4 microg/mL adenine (Sigma-Aldrich, cat. A2786), 97.3 U/mL penicillin-streptomycin (Invitrogen, cat. 15140122), 1.9 mM L-glutamine (Invitrogen, cat. 25030081), and 9.7 microM Y-27632 dihydrochloride (Tocris Bioscience, Bristol, United Kingdom, cat. 1254). The PDCs were cultured in complete DMEM/F12 media without 10 microM Y-27632 dihydrochloride for at least two passages prior to the screen. The established cell lines NCI-H1341 and […] were cultured in DMEM/F-12, HEPES (Invitrogen, cat. 11330032), 5% defined fetal bovine serum (HyClone Laboratories Inc., cat. SH30070.03), ITS premix universal culture supplement [insulin (5 microg/mL), transferrin (5 microg/mL), and selenious acid (5 ng/mL)] […]
# [1] = second compound 0.1 µM, first compound 0.0316 µM
# [2] = second compound 0.1 µM, first compound 0.1 µM
# [3] = second compound 0.1 µM, first compound 0.316 µM
# [4] = second compound 0.1 µM, first compound 1 µM
# [5] = second compound 0.1 µM, first compound 3.16 µM
# [6] = second compound 0.1 µM, first compound 10 µM
# [7] = second compound 0.316 µM, first compound 0.0316 µM
# [8] = second compound 0.316 µM, first compound 0.1 µM
# [9] = second compound 0.316 µM, first compound 0.316 µM
# [10] = second compound 0.316 µM, first compound 1 µM
# [11] = second compound 0.316 µM, first compound 3.16 µM
# [12] = second compound 0.316 µM, first compound 10 µM
# [13] = second compound 1 µM, first compound 0.0316 µM
# [14] = second compound 1 µM, first compound 0.1 µM
# [15] = second compound 1 µM, first compound 0.316 µM
# [16] = second compound 1 µM, first compound 1 µM
# [17] = second compound 1 µM, first compound 3.16 µM
# [18] = second compound 1 µM, first compound 10 µM
# [19] = second compound 3.16 µM, first compound 0.0316 µM
# [20] = second compound 3.16 µM, first compound 0.1 µM
# [21] = second compound 3.16 µM, first compound 0.316 µM
# [22] = second compound 3.16 µM, first compound 1 µM
# [23] = second compound 3.16 µM, first compound 3.16 µM
# [24] = second compound 3.16 µM, first compound 10 µM
# [25] = second compound 10 µM, first compound 0.0316 µM
# [26] = second compound 10 µM, first compound 0.1 µM
# [27] = second compound 10 µM, first compound 0.316 µM
# [28] = second compound 10 µM, first compound 1 µM
# [29] = second compound 10 µM, first compound 3.16 µM
# [30] = second compound 10 µM, first compound 10 µM
# 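Note: spheroids exposed to compounds for seven days after three days of growth.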
smiles,measurement,setting,value
CC(C)CC(NC(=O)C(Cc1ccccc1)NC(=O)c1cnccn1)B(O)O (stereo not given) + CC(CO)NC(=O)c1cc(-c2ccc(Cl)cc2)nn(-c2cnn(C)c2)c1=O,IC50,second compound 0.1 µM,6.1 nM
same,IC50,second compound 0.316 µM,5.42 nM
same,IC50,second compound 1 µM,6.01 nM
same,IC50,second compound 3.16 µM,5.29 nM
same,IC50,second compound 10 µM,4.43 nM
same,"viability, T/C","second compound 0.1 µM, first compound 0.000949 µM",105%
same,"viability, T/C","second compound 0.1 µM, first compound 0.003 µM",107%
same,"viability, T/C","second compound 0.1 µM, first compound 0.00949 µM",15.2%
same,"viability, T/C","second compound 0.1 µM, first compound 0.03 µM",2.8%
same,"viability, T/C","second compound 0.1 µM, first compound 0.0949 µM",1.2%
same,"viability, T/C","second compound 0.1 µM, first compound 0.3 µM",0.49%
same,"viability, T/C","second compound 0.316 µM, first compound 0.000949 µM",109%
same,"viability, T/C","second compound 0.316 µM, first compound 0.003 µM",90.4%
same,"viability, T/C","second compound 0.316 µM, first compound 0.00949 µM",11.8%
same,"viability, T/C","second compound 0.316 µM, first compound 0.03 µM",1.8%
same,"viability, T/C","second compound 0.316 µM, first compound 0.0949 µM",0.5%
same,"viability, T/C","second compound 0.316 µM, first compound 0.3 µM",0.59%
same,"viability, T/C","second compound 1 µM, first compound 0.000949 µM",101%
same,"viability, T/C","second compound 1 µM, first compound 0.003 µM",102%
same,"viability, T/C","second compound 1 µM, first compound 0.00949 µM",15.8%
same,"viability, T/C","second compound 1 µM, first compound 0.03 µM",2.98%
same,"viability, T/C","second compound 1 µM, first compound 0.0949 µM",1.25%
same,"viability, T/C","second compound 1 µM, first compound 0.3 µM",1.42%
same,"viability, T/C","second compound 3.16 µM, first compound 0.000949 µM",85.8%
same,"viability, T/C","second compound 3.16 µM, first compound 0.003 µM",85.6%
same,"viability, T/C","second compound 3.16 µM, first compound 0.00949 µM",13.2%
same,"viability, T/C","second compound 3.16 µM, first compound 0.03 µM",2.3%
same,"viability, T/C","second compound 3.16 µM, first compound 0.0949 µM",2.01%
same,"viability, T/C","second compound 3.16 µM, first compound 0.3 µM",1.89%
same,"viability, T/C","second compound 10 µM, first compound 0.000949 µM",77.6%
same,"viability, T/C","second compound 10 µM, first compound 0.003 µM",70%
same,"viability, T/C","second compound 10 µM, first compound 0.00949 µM",11%
same,"viability, T/C","second compound 10 µM, first compound 0.03 µM",1.4%
same,"viability, T/C","second compound 10 µM, first compound 0.0949 µM",2.28%
same,"viability, T/C","second compound 10 µM, first compound 0.3 µM",2.01%
COc1cc(Nc2ncc3c(n2)-c2ccc(Cl)cc2C(c2c(F)cccc2OC)=NC3)ccc1C(=O)O + CC(CO)NC(=O)c1cc(-c2ccc(Cl)cc2)nn(-c2cnn(C)c2)c1=O,IC50,second compound 0.1 µM,< 31.6 nM
same,IC50,second compound 0.316 µM,< 31.6 nM
same,IC50,second compound 1 µM,< 31.6 nM
same,IC50,second compound 3.16 µM,< 31.6 nM
same,IC50,second compound 10 µM,< 31.6 nM
same,"viability, T/C",[1],51%
same,"viability, T/C",[2],41.9%
same,"viability, T/C",[3],44.8%
same,"viability, T/C",[4],40.1%
same,"viability, T/C",[5],40.7%
same,"viability, T/C",[6],31.4%
same,"viability, T/C",[7],50.8%
same,"viability, T/C",[8],40.1%
same,"viability, T/C",[9],44.1%
same,"viability, T/C",[10],40.9%
same,"viability, T/C",[11],34.3%
same,"viability, T/C",[12],33.3%
same,"viability, T/C",[13],52.5%
same,"viability, T/C",[14],40.3%
same,"viability, T/C",[15],39.3%
same,"viability, T/C",[16],47.9%
same,"viability, T/C",[17],37.3%
same,"viability, T/C",[18],30%
same,"viability, T/C",[19],45.3%
same,"viability, T/C",[20],36.2%
same,"viability, T/C",[21],44.3%
same,"viability, T/C",[22],42%
same,"viability, T/C",[23],36.8%
same,"viability, T/C",[24],28.4%
same,"viability, T/C",[25],38.5%
same,"viability, T/C",[26],33.4%
same,"viability, T/C",[27],37.3%
same,"viability, T/C",[28],38.8%
same,"viability, T/C",[29],32.6%
same,"viability, T/C",[30],26.4%
O=C(C=Cc1cccc(S(=O)(=O)Nc2ccccc2)c1)NO + CC(CO)NC(=O)c1cc(-c2ccc(Cl)cc2)nn(-c2cnn(C)c2)c1=O,IC50,second compound 0.1 µM,279 nM
same,IC50,second compound 0.316 µM,327 nM
same,IC50,second compound 1 µM,261 nM
same,IC50,second compound 3.16 µM,146 nM
same,IC50,second compound 10 µM,< 31.6 nM
same,"viability, T/C",[1],72.2%
same,"viability, T/C",[2],56.7%
same,"viability, T/C",[3],48.6%
same,"viability, T/C",[4],35.1%
same,"viability, T/C",[5],28.5%
same,"viability, T/C",[6],1.96%
same,"viability, T/C",[7],74%
same,"viability, T/C",[8],63.3%
same,"viability, T/C",[9],46.1%
same,"viability, T/C",[10],36.3%
same,"viability, T/C",[11],30.7%
same,"viability, T/C",[12],2.62%
same,"viability, T/C",[13],67.8%
same,"viability, T/C",[14],57.3%
same,"viability, T/C",[15],46.5%
same,"viability, T/C",[16],35.4%
same,"viability, T/C",[17],28.7%
same,"viability, T/C",[18],3.31%
same,"viability, T/C",[19],64%
same,"viability, T/C",[20],52%
same,"viability, T/C",[21],41.9%
same,"viability, T/C",[22],31%
same,"viability, T/C",[23],22.5%
same,"viability, T/C",[24],2.61%
same,"viability, T/C",[25],50.4%
same,"viability, T/C",[26],43.6%
same,"viability, T/C",[27],39.1%
same,"viability, T/C",[28],29.1%
same,"viability, T/C",[29],20%
same,"viability, T/C",[30],1.62%
